The term IC50 denotes the concentration needed to halve the response being measured. What is called MRT is a mean duration of stay, worked out from the concentration-time curve. A word on the half-life: it is the time in which the quantity being followed falls by half. Read a low half-life as fast loss. As a reminder, the clearance is the volume of plasma or blood freed of the substance per unit of time. For orientation: Cmax means the peak of the concentration-time curve. Broadly, the Tmax is the time from dosing to the highest level.

The target in one series is T1, hERG potassium channel (Homo sapiens, UniProt Q12809).
T1 construct: expressed in transfected cells
Kind of series: hERG potassium channel inhibition experiment (automatic patch clamp, CHO-hERG cells). It is filed as cell-based. To be noted: Qpatch, highest tested concentration 40 μM, read-out: IC50, blocking effect on the hERG potassium current. The method, then: Fully automatic patch clamps were used to test the blocking effect of the compounds of the present invention on the hERG potassium current on a stable cell line transfected with hERG potassium channels.
CHO-hERG cells were cultured in 175 cm^2 culture flask. When the cell grew to 60-80% confluence, the culture medium was removed. The cells were washed with 7 ml PBS (Phosphate Buffered Saline) once, and then 3 ml Detachin was added to digest.
After the digestion was completed, 7 ml culture medium was added to neutralize. The mixture was centrifuged, and after the supernatant was removed, 5 ml culture medium was added to resuspend to ensure the cell density was 2×10^6-5×10^6/ml.
Single-cell high-impedance sealing and whole-cell mode formation were all automatically completed by using the Qpatch instrument. After the recording mode was obtained, the cell was clamped at −80 millivolts. Before +40 millivolt depolarization stimulation for 5 seconds was given, −50 millivolt pre-voltage for 50 millisecond was first given, then repolarized to −50 millivolt for 5 seconds, and then returned to −80 millivolt. This voltage stimulus was applied every 15 seconds. After recording for 2 min, extracellular fluid was given, and recording was conducted for 5 min, and then the dosing process started. The compound concentration started from the lowest test concentration, and each test concentration was given for 2.5 min. […] At least 3 cells per concentration (n≥3) were tested.
20 mM compound mother liquor was diluted with extracellular fluid. 5 μL of 20 mM compound mother liquor was taken and added into 2495 μL extracellular fluid, so that it was diluted 500 times to 40 μM, and was then serially diluted 3 times in an extracellular fluid containing 0.2% DMSO to obtain the final concentration to be tested.
The highest tested concentration was 40 μM, and the concentrations were in order as follows: 40, 13.33, 4.44, 1.48, 0.49, 0.16 μM, totally 6 concentrations.
Experimental data were analyzed by XLFit software.
On the technique in general: The hERG channel carries a current that helps repolarise heart muscle cells.

A short description of series [1]: In vivo pharmacokinetic experiment in mice. The settings on record: C57 mice. As for the experimental part: Healthy male C57 mice were randomly divided into groups with 3 mice in each group, and the test compounds were administrated intragastrically or by intravenous injection. See Table 6 below for specific arrangements:
(§1) Each test compound was dissolved in physiological saline to prepare a certain concentration of solution for administration.
(§2) One day before administration, the mice were fasted and allowed to drink freely for 12-14 h. The mice were fed 4 h after administration.
0.030 mL of blood was took from each animal each time through the orbit, and anticoagulated with EDTAK2. The collection time points were as follows: in PO group, 5 min, 15 min, 30 min, 1 h, 2 h, 4 h, 6 h, 8 h, 24 h after administration of test substance; in IV group, 2 min, 5 min, 15 min, 30 min, 1 h, 2 h, 4 h, 6 h, 8 h, 24 h after administration of test substance. After blood samples were collected, they were placed on ice and centrifuged to separate the plasma within 30 minutes (centrifugation conditions: 5000 rpm, 10 minutes, 4° C.). The sample were stored at −80° C. before analysis.

Series [2] in a line: Distribution in mouse brain tissue. It is filed as in vivo, C57 mice. The settings on record: male, brain, po; C57 mouse, 10 mg/kg p.o., 30 min. The method, then: Healthy male C57 mice were randomly divided into groups with 3 mice in each group, and the test compound was administrated intragastrically. See Table 10 below for specific arrangements:
as §1, §2
After the animals were bled, the brain tissue was collected. After washing, 50% ice methanol was added for homogenate at 1:4 (m/v). The collection time points was 10 min, 15 min, 30 min, 1 h, 2 h after administration of the test substance; 30.0 μL of tissue sample was taken (the sample was taken out from the refrigerator at −80° C., vortexed for 30 seconds after natural melting at room temperature) and added into a 1.5 mL centrifuge tube. 300.0 μL internal standard solution (30 ng/mL […] acetonitrile solution) was added, the mixture was vortex for 60 seconds and then centrifuged for 3 minutes (centrifugal force was 12000 rpm); 75 μL of the supernatant was taken and transferred to 96-well injection plate loaded with equal volume of water, shaken and mixed well, and subjected to LC-MS/MS analysis, wherein injection volume was 10 μL.

The test system of series [3] is C57 mice. Put plainly: Forced swimming experiment, oral administration to mice. The class given is in vivo. To be noted: C57 mice. The method, then: 1 h and 24 h after a single oral administration of 20 mg/kg, forced swimming experiments were then carried out to investigate the effects of different compounds on depression-like behavior in C57 mice.
(§3) Experimental animals were 6-week aged C57 mice, male, C57 mice were purchased from Shanghai SLAC Laboratory Animal Co., Ltd., with a body weight of 20.45±0.19 g. Before the experiment, they arrived at the Animal Feeding Center of Shanghai Institute of Materia Medica, Chinese Academy of Sciences (Animal Production License: SCXK9[Shanghai]2004-0002, usage license: SYXK[Shanghai]2003-0029), and adapted for 3 days or more in animal facilities. They were bred at 6 animals/cage. The breeding environment was room temperature 23±0.2° C., with 12/12 hours alternation of day and night. Before the behavioral test, the animals should be moved to the behavioral test operation room 2 hours in advance to adapt to the environment and reduce their tension.
Preparation of the test product: each test compound was accurately weighed and dissolved in 0.9% NaCl solution, mixed thoroughly, and prepared into 1 mg/ml and 2 mg/ml solutions respectively, and set aside.
(§4) 24 hours before the administration, the mice were placed in a cylindrical tank to adapt to the aquatic environment for 10 min. On the day of the behavioral test, the animals were respectively administered intragastrically once at 1 h and 24 h before the behavioral test. The mice were placed individually into a cylindrical glass tank with a height of 30 cm and a diameter of 20 cm. The water depth in the tank was 15 cm, so that the animals could not escape from the glass tank and their feet and tails could not touch the bottom of the tank, the water temperature was 23° C.-25° C. A 6 minute video was taken after the mouse entered into water. Since most animals were very active in the first two minutes, the immobility time in the following 4 minute were calculated (criterion of immobility: the mouse stops struggling in the water, stays still and has small limbs movement to maintain balance or to keep a floating state).
The antidepressant effect of a compound was evaluated by the ability of the compound to reduce the immobility time of the animal in the forced swimming test as compared with the blank group. Inhibition rate1 h(%)=immobility time(blank, 1 h)−immobility time(administration, 1 h)/immobility time(blank, 1 h)×100% Inhibition rate24h(%)=immobility time(blank, 24 h)−immobility time(administration, 24 h)/immobility time(blank, 24 h)×100%

In series [4] the test system is C57 mice. Kind of series: Forced swimming experiment, intraperitoneal administration to mice. It is filed as in vivo. To be noted: for inhibition in vivo at 10 mg/kg: Mus musculus, ip. As for the experimental part:
The forced-swimming test is currently the most widely used classic method to evaluate the antidepressant effects of compounds in rodents. […] The time in immobile state of experimental animal is observed and recorded, which can be used to evaluate the effect of antidepressant compounds.
1 h and 24 h after a single intraperitoneal administration of 10 mg/kg, forced swimming tests were respectively carried out to investigate the effects of different compounds on depression-like behaviors of C57 mice.
as §3, with “male, and” for “male,”
Preparation of the test product: each test compound was accurately weighed and dissolved in 0.9% NaCl solution, mixed thoroughly, and prepared as a 1 mg/ml solution, set aside.
as §4, with “intraperitoneally” for “intragastrically”
The antidepressant effect of a compound was evaluated by the ability of the compound to reduce the immobility time of the animal in the forced swimming test as compared with the blank group. The shorter the immobility time of the animal to be tested, the higher the inhibition rate and the stronger the antidepressant activity. Inhibition rate1 h(%)=immobility time(blank, 1 h)−immobility time(administration, 1 h)/immobility time(blank, 1 h)×100% Inhibition rate24 h(%)=immobility time(blank, 24 h)−immobility time(administration, 24 h)/immobility time(blank, 24 h)×100%

The conditions of series [5]: 30 mg/kg intraperitoneally, literature (Journal of Pharmaceutical and Biomedical Analysis, 2018, 148, 288-297); cited from earlier work.
Setting [6] is: male, mouse, iv, 5 mg/kg i.v., plasma.
Where [7] appears, read: male, mouse, po, 20 mg/kg p.o., plasma.
Where [8] appears, read: inhibition of immobility time, forced swimming 1 h after single oral (intragastric) 20 mg/kg.
Setting [9] is: inhibition of immobility time, forced swimming 24 h after single oral (intragastric) 20 mg/kg.
[10] abbreviates: 1 h, read-out: 1 h inhibition rate.
[11] abbreviates: 24 h, read-out: 24 h inhibition rate.

Structures can show the parent of a compound that is named as a salt. Where two headings read alike, the source gives them in different places.

T1 sequence (Q12809 whole entry): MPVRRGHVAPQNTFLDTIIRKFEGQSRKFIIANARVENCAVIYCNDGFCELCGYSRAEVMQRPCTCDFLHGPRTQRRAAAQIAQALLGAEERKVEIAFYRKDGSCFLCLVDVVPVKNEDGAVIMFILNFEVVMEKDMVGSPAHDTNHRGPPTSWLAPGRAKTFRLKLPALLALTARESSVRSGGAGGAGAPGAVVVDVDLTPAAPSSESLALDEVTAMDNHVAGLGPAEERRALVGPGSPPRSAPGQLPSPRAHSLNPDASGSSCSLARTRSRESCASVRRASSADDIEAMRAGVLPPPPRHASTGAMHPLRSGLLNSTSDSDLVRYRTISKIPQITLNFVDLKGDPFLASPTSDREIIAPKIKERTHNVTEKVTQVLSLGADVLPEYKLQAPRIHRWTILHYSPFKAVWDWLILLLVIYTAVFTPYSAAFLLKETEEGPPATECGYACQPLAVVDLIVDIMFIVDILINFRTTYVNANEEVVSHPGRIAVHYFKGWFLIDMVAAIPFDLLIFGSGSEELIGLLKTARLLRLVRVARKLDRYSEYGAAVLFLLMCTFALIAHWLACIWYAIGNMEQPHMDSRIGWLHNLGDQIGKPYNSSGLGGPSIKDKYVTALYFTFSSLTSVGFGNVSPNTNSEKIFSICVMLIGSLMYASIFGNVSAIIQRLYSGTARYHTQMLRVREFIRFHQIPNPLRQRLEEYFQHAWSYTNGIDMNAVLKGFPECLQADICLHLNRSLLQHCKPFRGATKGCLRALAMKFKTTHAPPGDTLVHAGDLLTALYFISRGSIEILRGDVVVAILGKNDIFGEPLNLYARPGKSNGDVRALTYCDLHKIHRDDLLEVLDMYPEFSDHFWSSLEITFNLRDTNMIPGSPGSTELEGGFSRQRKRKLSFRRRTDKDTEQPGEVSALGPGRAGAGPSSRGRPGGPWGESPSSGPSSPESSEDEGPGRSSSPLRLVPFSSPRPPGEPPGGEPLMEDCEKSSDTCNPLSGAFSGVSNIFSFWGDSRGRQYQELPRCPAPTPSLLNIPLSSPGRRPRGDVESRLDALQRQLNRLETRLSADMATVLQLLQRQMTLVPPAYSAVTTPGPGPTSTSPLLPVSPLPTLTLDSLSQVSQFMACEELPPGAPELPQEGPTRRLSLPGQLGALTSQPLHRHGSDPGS

`Cl.N[C@@]1(c2cccc(OC(F)(F)F)c2F)CCC[C@@H](O)C1=O` [Compound 64, (2R,6R)-2-amino-2-(2-fluoro-3-(trifluoromethoxy)phenyl)-6-hydroxycyclohexane-1-one hydrochloride]: the half-maximal inhibitory concentration (IC50) at hERG potassium channel was over 40 µM. In addition, in series [1] (5 mg/kg i.v., plasma), the AUC0-t was found to be 4817 ngh/mL and the “AUC0-∞” value was found to be 4838 ngh/mL. This molecule also yielded a F in series [1] (20 mg/kg p.o. vs 5 mg/kg i.v.) of 66.2%. Moreover, in series [1] (20 mg/kg p.o., plasma), the AUC0-t came out at 12708 ngh/mL and the “AUC0-∞” value turned out to be 12816 ngh/mL. In series [1] (setting [6]), this molecule gave an MRT of 52.8 min and a half-life of 52.2 min. In series [1] (male, mouse, plasma, iv, 5 mg/kg i.v.), this molecule registered a clearance of 17.2 mL/min/kg. Further, in series [1] (male, mouse, plasma, iv, 5 mg/kg i.v., read-out: Vss), the Vd came to 0.91 L/kg. In series [1] (setting [7]), the peak level (Cmax) was 11900 ng/mL, the MRT worked out at 125 min, the Tmax came to 5 min and the half-life is 239 min. The molecule also showed a concentration at 30 min in series [2] of 5740 ng/g. Also, the “1 h inhibition rate” value with C57 mice [3] (setting [8]) is 36.5 ± 5.3%. The “24 h inhibition rate” value with C57 mice [3] (setting [9]) came to 34.5 ± 1.0%.

Consider `NC1(c2c(F)cc(F)cc2F)CCCC(O)C1=O` (stereo not drawn) [Compound 73, 2-amino-6-hydroxy-2-(2,4,6-trifluorophenyl)cyclohexane-1-one hydrochloride], for which, at hERG potassium channel, the concentration for half-maximal inhibition (IC50) is over 40 µM. The inhibition in vivo at 10 mg/kg with C57 mice [4] (setting [10]) stood at 38.6 ± 6%; in the series on C57 mice [4] (setting [11]), 36.9 ± 3.9%.

Turning to `Cl.NC1(c2ccc(C(F)(F)F)cc2)CCCC(O)C1=O` (stereo not drawn) [Compound 46, 2-amino-6-hydroxy-2-(4-(trifluoromethyl)phenyl)cyclohexane-1-one hydrochloride], the half-inhibitory concentration (IC50) at hERG potassium channel is over 40 µM. In addition, the “1 h inhibition rate” value with C57 mice [3] (setting [8]) is given as 31.2 ± 4.7%. In the series on C57 mice [3] (setting [9]), the “24 h inhibition rate” value was 32.3 ± 1.5%. Further, the inhibition in vivo at 10 mg/kg in the series on C57 mice [4] (setting [10]) came out at 34.7 ± 4.1%; in the series on C57 mice [4] (setting [11]), 43.5%.

With `CNC1(c2ccccc2Cl)CCCCC1=O` (stereo not drawn) [Ketamine, ketamine, reference compound], the “1 h inhibition rate” value with C57 mice [3] (control given intraperitoneally 10 mg/kg, 1 h) is 22.7 ± 0.2%; in the series with C57 mice [4] (inhibition of immobility time, forced swimming 1 h after single intraperitoneal 10 mg/kg, C57 mice), 29.2 ± 4.6%. Besides, the “24 h inhibition rate” value with C57 mice [3] (control given intraperitoneally 10 mg/kg, 24 h) amounted to 25.1 ± 2.7%. In addition, the Brain tissue concentration in series [5] is on record as 1929 ng/g. For the same molecule, the inhibition in vivo at 10 mg/kg was found to be 29.2% with C57 mice [4] (setting [10]) and 35.4 ± 7.9% with C57 mice [4] (setting [11]).

Regarding `Cl.NC1(c2cccc(F)c2F)CCCC(O)C1=O` (stereo not drawn) [Compound 44, 2-amino-2-(2,3-difluorophenyl)-6-hydroxycyclohexane-1-one hydrochloride], the 50% inhibitory concentration (IC50) on hERG potassium channel is over 40 µM. For the same molecule, the “1 h inhibition rate” value in the series with C57 mice [3] (setting [8]) is 27.3 ± 1.2%. Moreover, the “24 h inhibition rate” value with C57 mice [3] (setting [9]) was found to be 22.3 ± 2.3%. Moreover, the inhibition in vivo at 10 mg/kg was 36.5 ± 2.9% in the series with C57 mice [4] (setting [10]) and 53.5 ± 0.2% in the series with C57 mice [4] (setting [11]).

The record behind these values is patent US12351565B2, “Aromatic compound and preparation method therefor and use thereof” (SHANGHAI JIANHE PHARMACEUTICAL & TECHNOLOGY CO. LTD., priority 2018, dated 2025).
